# From patent publication US11576914B2, “Drug for treating or preventing disorder caused by TGF-β signaling, and application thereof” (THE DOSHISHA, priority 2017, dated 2023)
# Tests used:
# [1] = system: cleaved caspase-3 and PARP; experiment: Western blot of caspase 3 and PARP in iFECD stimulated with TGF-β2; format: cell-based, human; settings: 0.1 μM
# Description: The medium was removed from the culture dish of cultured disease model cells, and the disease model cells were supplemented with 1×PBS (−) that was preheated to 37° C., followed by washing. This operation was repeated twice. The cells were supplemented with 1×PBS (−) again and incubated for 5 minutes at 37° C. (5% CO2). After the PBS (−) was removed, the cells were supplemented with 0.05% Trypsin-EDTA (nacalai tesque, 32778-34) and incubated for 5 minutes at 37° C. (5% CO2). The cells were then suspended in a medium, and collected by centrifugation at 1500 rpm for 3 minutes. Medium: DMEM (nacalai tesque, 08456-36)+10% FBS (Biowest, S1820-500)+1% P/S (nacalai tesque, 26252-94).
# The Fuchs' endothelial corneal dystrophy patient-derived immortalized corneal endothelial cells were seeded in a 6-well plate at a rate of 1.5×10^5 cells per well and cultured at 37° C. (5% CO2) for 48 hours. DMEM+10% FBS+1% P/S was used as the medium. After 48 hours, the medium was removed, and SB203580 (Cayman, 13067), PH-797804 (Selleck Chemicals, S2726), VX-702 (Selleck Chemicals, 56005) and AKP-001 were added to DMEM+2% FBS+1% P/S so that all the final concentration was 0.1 μM, followed by culturing as 24-hour pretreatment.
# After 24 hours, the medium was removed, and SB203580 (Cayman, 13067), PH-797804 (Selleck Chemicals, S2726), VX-702 (Selleck Chemicals, 56005) and AKP-001, together with 100 ng/ml recombinant human TGF-β2 (R & D systems, RND302-B2-002), were added to DMEM+2% FBS+1% P/S so that all the final concentration was 0.1 μM, followed by culturing for 24 hours. After 24 hours, the protein was subjected to Western blotting according to the following procedure to evaluate the effect on apoptosis.
# The medium was collected on ice to collect free and dead cells as well. The solution obtained from washing the cells twice with 1×PBS (−) was also collected, followed by centrifugation of 800 g at 4° C. for 5 minutes. The supernatant was discarded to obtain precipitates. The washed cells were supplemented with a protein extraction buffer (RIPA; 50 mM Tris-HCl (pH 7.4), 150 mM NaCl, 1 mM EDTA, 0.1% SDS, 0.5% DOC, 1% NP-40) on ice to extract proteins. The precipitates from centrifuging the free and dead cells were also subsequently suspended together for extraction. The collected solution was pulverized three times for 30 seconds in cold water with a sonication device (BIORUPTOR, TOSHO DENKI) and centrifuged for 10 min at 4° C. at 15000 rpm to collect the supernatant of proteins.
# Eight μg of the extracted protein was separated by SDS-PAGE and transferred onto a nitrocellulose membrane. A rabbit anti-Caspase 3 antibody (Cell Signaling, 9662), rabbit anti-PARP antibody (Cell Signaling, 9542), and mouse anti-GAPDH antibody (MBL, M171-3) were used as the primary antibodies. A peroxidase-labeled anti-rabbit antibody and anti-mouse antibody (GE Healthcare Biosciences, NA931V, NA934V) were used as the secondary antibodies. For the primary antibodies, the rabbit anti-PARP antibody was diluted 1000-fold, the rabbit anti-Caspase 3 antibody was diluted 1000-fold, and the mouse anti-GAPDH antibody was diluted 3000-fold. Further, the secondary antibody was diluted 5000-fold. Chemi Lumi ONE Ultra (Nacalai Tesque, 11644-40) was used for detection. The detected band strength was analyzed with a lumino image analyzer LAS-4000 mini (Fuji Film) and ImageQuant™ software (GE Healthcare).
# [2] = system: human corneal endothelial cells; experiment: Cell Titer-Glo Luminescent Cell Viability Assay in the presence of AKP-001; format: cell-based; settings: 24 hours
# Description: Human corneal endothelial cells were peeled off with Descemet's membranes from research-purpose donor corneas, followed by culturing. For the medium, the following was used: OptiMEM-I (invitrogen, 31985-088)+8% FBS (Thermo, SH30084.03)+5 ng/mL epidermal growth factor (invitrogen, PHG0311)+20 μg/mL L-ascorbic acid 2-sesquimagnesium phosphate hydrate (SIGMA, A8960)+200 mg/L calcium chloride dihydrate (SIGMA, C7902)+0.08% chondroitin sulfate (Wako Pure Chemical Industries, Ltd., 032-14613)+50 μg/mL gentamicin (invitrogen, 15710-064)+1 μM SB431542 (WAKO, 192-16541)+10 μM SB203580 (Cayman, 13067). Culture dishes pre-coated with laminin-511E8 (Nippi, 381-07363) were used.
# Cultured human corneal endothelial cells were seeded at a rate of 1×10^4 per well in a 96-well plate coated with laminin-511E8, and the cells were cultured until reaching confluence at 37° C. (5% CO2). For the medium, used was OptiMEM-I (invitrogen, 31985-088)+8% FBS (Thermo, SH30084.03)+5 ng/mL epidermal growth factor (invitrogen, PHG0311)+20 μg/mL L-ascorbic acid 2-sesquimagnesium phosphate hydrate (SIGMA, A8960)+200 mg/L calcium chloride dihydrate (SIGMA, C7902)+0.08% chondroitin sulfate (Wako Pure Chemical Industries, Ltd., 032-14613)+50 μg/mL gentamicin (invitrogen, 15710-064)+1 μM SB431542 (WAKO, 192-16541)+10 μM SB203580 (Cayman, 13067).
# Upon reaching confluence, the culturing was further conducted for one more week with OptiMEM-I (invitrogen, 31985-088)+8% FBS (Thermo, SH30084.03)+20 μg/mL+200 mg/L calcium chloride dihydrate (SIGMA, C7902)+0.08% chondroitin sulfate (Wako Pure Chemical Industries, Ltd., 032-14613)+50 μg/mL gentamicin (invitrogen, 15710-064). […]
# The medium was discarded to 50 μl per well, and Cell Titer-Glo Luminescent Cell Viability Assay solution (Promega, G7572) was added to the 50 μl/well to reach 1:1 with the medium. […] After standing, 50 μl was transferred to an Assay plate (Corning, 3912, Assay plate well, white polystyrene), and the […] was measured using GloMax-Multi Detection System (Promega, E7051).
compound,measurement,setting,value
"O=C(Cc1c(F)cccc1Cl)Nc1onc(-c2ccc(F)cc2)c1-c1ccncn1 [AKP-001, 5-[(2-chloro-6-fluorophenyl)acetylamino]-3-(4-fluorophenyl)-4-(4-pyrimidinyl)isoxazole]",cleaved caspase-3 and PARP expression,"[1]; 100 ng/ml TGF-β2, 24 hours",hardly any
same,caspase activity,[1]; TGF-β2,inhibited
same,cell damage (cell viability),"[2]; 0.1 μM, 0.3 μM, 1 μM, 3 μM or 10 μM",no cell damage was observed
same,number of the cells (cell viability),[2]; 30 μM and 100 μM,significantly reduced the number of the cells
same,concentrations at which less toxic to the cells,[2],less than 30 μM
